# Where two headings read alike, the source gives them in different places.
# Experiments:
# [1] = system: isolated gastric glands; settings: for reduction in secretagogue induced proton secretion (proton extrusion, acid production): Carbachol 200 μM, means from 5 rats; for inhibitory effect on secretagogue induced acid secretion, in words: rat gastric glands
# Protocol: (§1) In this series of studies we used glands from rats that have been fasted for 18 hours with free access to water to reduce basal acid secretion to zero. Following isolation the glands were placed in a perfusion chamber that was maintained at 37° C. Prior to exposure to the Zn solution the glands were loaded with the Fluorescent reagent BCECF to monitor intracellular pH, this is based on technology we have used in the lab. In these studies we stimulated acid secretion by exposing the individual glands to 200 μM Carbachol a well characterized activator of acid secretion. In parallel to these studies (Control glands) we exposed glands from the same animal to a solution that contained ZnSO4.7H2O. […] In subsequent studies we then reduced the concentration of ZnSO4.7H2O by an order of magnitude ([…]) and repeated the study. For each dose used a minimum of 5 animals was used. […] We reduced to a concentration of 0.03 μM.
# [2] = system: isolated stomachs; settings: simultaneous with secretagogue, 15 minute exposure, fasted rats
# Protocol: We took age and sex matched animals for these studies. The stomach was excised and perfused with 0.5 ml of nonbuffered saline solution in vitro with a solution of either 200 μM Carbachol or ZnSO4.7H2O+200 μM Carbachol following a 15 minute perfusion time we collected the effluent from the stomach and measure intragastric pH in this fluid following a protocol that we have used in the past.
# [3] = system: isolated glands
# Protocol: In this series of studies Rats were given free access to water and normal rat chow for a period of 5 days. In one group 30 μM ZnSO4.7H2O was added to the drinking water so that the animals are getting a constant exposure of ZnSO4.7H2O. At the end of the 5 day period the animals were sacrificed and the stomach removed. We examined how these glands performed to addition of a secretagogue as previously defined in Protocol 1. In the second group we repeated the study giving 3 μM ZnSO4.7H2O for the 5 day period while allowing normal access to food and water.
# [4] = system: isolated human glands; settings: for inhibitory effect on secretagogue induced acid secretion, in words: human gastric glands
# Protocol: as §1
# Note that doses of 300 μM and 3 μM were used. […] All data are the means from 5 separate human samples.
# [5] = listed as zinc sulfate heptahydate
structure (smiles),measurement,setting,value
O.O.O.O.O.O.O.O=S(=O)([O-])[O-].[Zn+2] [zinc sulfate heptahydrate],inhibiting acid secretion in the stomach,"[1]; about 0.3 μM to about 300 μM, more often about 3 μM to about 30 μM",almost complete inhibition
same,"reduction in secretagogue induced proton secretion (proton extrusion, acid production)",[1]; dose of 0.03 μM,p<0.03 significant reduction
same,"reduction in secretagogue induced proton secretion (proton extrusion, acid production)","[1]; dose of 0.03 μM, listed as ZnSO4.7H2O",modest yet significant inhibition of acid secretion (p<0.03)
same,"reduction in secretagogue induced proton secretion (proton extrusion, acid production)",[1]; doses from 300 to 0.3 μM,significant p<0.0001 reduction
same,"reduction in secretagogue induced proton secretion (proton extrusion, acid production)","[1]; doses from 300 to 0.3 μM, listed as ZnSO4.7H2O",highly significant inhibition of proton extrusion (p<0.0001)
same,"inhibitory effect on secretagogue induced acid secretion, in words",[1]; listed as ZnSO4.7H2O,potent inhibitor
same,"inhibitory effect on secretagogue induced acid secretion, in words",[1]; [5],"abolishing the activity of the gastric H^+,K^+-ATPase"
same,elevation in gastric pH,"[2]; 3 μM, listed as ZnSO4Heptahydrate",≥ 1 pH unit
same,elevation in gastric pH,"[2]; 3 μM, listed as ZnSO4.7H2O",1 pH unit
same,elevation in gastric pH,"[2]; 30 μM, listed as ZnSO4Heptahydrate",≥ 1 pH unit
same,elevation in gastric pH,"[2]; 30 μM, listed as ZnSO4.7H2O",1 pH unit
same,basal acid secretion in the gland,"[3]; 3 μM in drinking water for 7 days, versus blank water",slightly higher than blank water
same,Carbachol (secretagogue) induced acid secretion,"[3]; 3 μM in drinking water for 7 days, versus matched controls",marked suppression
same,basal acid secretion in the gland,"[3]; 30 μM, 1 week ad lib access",no basal acid secretion
same,secretagogue (carbachol) induced acid secretion in the gland,"[3]; 30 μM, 1 week ad lib access",no effect
same,inhibition of proton extrusion (acid secretion),"[4]; doses of 300 μM and 3 μM, Carbachol, means from 5 human samples",highly significant inhibition of proton extrusion (p<0.0001)
same,"inhibitory effect on secretagogue induced acid secretion, in words",[4]; listed as ZnSO4.7H2O,potent inhibitor
same,"inhibitory effect on secretagogue induced acid secretion, in words",[4]; [5],"abolishing the activity of the gastric H^+,K^+-ATPase"

# — patent US20170209489A1, “FAST ACTING INHIBITOR OF GASTRIC ACID SECRETION WITH ENHANCED ACTIVITY” (YALE UNIVERSITY, priority 2014, published 2017)
